Where two headings read alike, the source gives them in different places.
Tests used:
Format in all cases: cell-based
M3 = M3 (Homo sapiens, UniProt P20309); assay: In vitro functional assay of muscarinic acetylcholine receptor activity, M3
M2 = target: T1, M2 (Homo sapiens, UniProt P08172); assay: In vitro functional assay of muscarinic acetylcholine receptor activity, M2
T1 sequence (P08172 1-466): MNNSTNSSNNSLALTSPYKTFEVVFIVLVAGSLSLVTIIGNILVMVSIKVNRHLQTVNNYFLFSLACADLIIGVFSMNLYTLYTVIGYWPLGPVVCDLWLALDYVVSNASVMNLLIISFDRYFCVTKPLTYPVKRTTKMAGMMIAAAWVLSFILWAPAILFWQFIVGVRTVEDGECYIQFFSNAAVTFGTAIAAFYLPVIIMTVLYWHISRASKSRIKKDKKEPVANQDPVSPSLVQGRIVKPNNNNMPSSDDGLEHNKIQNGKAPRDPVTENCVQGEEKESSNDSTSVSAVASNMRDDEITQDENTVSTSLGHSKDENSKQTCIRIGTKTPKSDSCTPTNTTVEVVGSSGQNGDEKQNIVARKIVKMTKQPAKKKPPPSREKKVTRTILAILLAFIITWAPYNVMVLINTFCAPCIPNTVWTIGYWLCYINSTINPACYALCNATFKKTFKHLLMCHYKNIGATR

human M1 receptor = target: T2, human M1 receptor (Homo sapiens, UniProt P11229); assay: In vitro functional assay of muscarinic acetylcholine receptor activity (aequorin calcium flux, antagonist mode vs EC80 acetylcholine), M1
T2 sequence (P11229 1-460): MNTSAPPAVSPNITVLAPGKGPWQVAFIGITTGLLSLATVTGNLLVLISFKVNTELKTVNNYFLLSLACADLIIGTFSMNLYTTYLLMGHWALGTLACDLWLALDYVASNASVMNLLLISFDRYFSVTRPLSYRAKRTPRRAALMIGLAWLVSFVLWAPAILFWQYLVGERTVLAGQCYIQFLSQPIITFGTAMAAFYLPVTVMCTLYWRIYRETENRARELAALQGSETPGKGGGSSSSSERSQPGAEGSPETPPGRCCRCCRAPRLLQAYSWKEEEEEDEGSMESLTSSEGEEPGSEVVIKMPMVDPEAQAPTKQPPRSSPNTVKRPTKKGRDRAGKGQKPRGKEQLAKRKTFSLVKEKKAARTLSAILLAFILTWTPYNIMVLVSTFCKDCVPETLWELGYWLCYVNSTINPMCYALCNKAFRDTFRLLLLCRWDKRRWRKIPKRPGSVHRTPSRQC
Protocol: CHO-K1 cells stably expressing human M1 receptor with Aequorin (Perkin Elmer) were grown in F12 media, 10% FBS with 0.4 mg/mL geneticin and […]. Cells were grown to confluence and frozen down to be assayed at a later date. On the day of the experiment cells were thawed in a 37° C. water bath, resuspended in DMEM/HAM's F12 with HEPES (Invitrogen)+0.1% protease-free BSA (assay buffer), and spun down to remove freezing media. After centrifugation, supernatant was removed and 12 mL of assay buffer was added. Coelenterazine h (Promega) was added to the cells at a final concentration of 5 uM and incubated for 4 hours at room temperature in the dark. Compound master plate-96 deep well (Corning) were formatted in a 8-point DRC in assay buffer with 0.2% DMSO at a starting concentration of 60 uM (2×). After 4 hours of incubation, cells were plated at a concentration of 5×10^5 cells/well in 96 well white-walled, tissue culture-treated, clear-bottom plates (VWR). Compounds were added to the daughter plate, and cells plus compound were incubated at room temperature for 30 minutes in the dark.
Calcium flux was measured using the FlexStation 3 (Molecular Devices). To measure the antagonist dose-response, the EC80 of Acetylcholine was injected to the daughter plate using the automated compound transfer function of the Flex Station, and the increase in luminescence was measured over time. Antagonist activity was analyzed as a concentration dependent decrease in the EC80 acetylcholine response. Dose response curves were generated using Prism (GraphPad Software). The IC50 of the compounds was calculated from the dose response curve.

[1] = antagonist IC50 at M3, read-out: M3 IC50
[2] = antagonist IC50 at M2, read-out: M2 IC50
[3] = CHO-K1 cells stably expressing human M1 receptor with Aequorin, decrease in EC80 acetylcholine response, read-out: M1 IC50

Chain of M3 (P20309 whole entry): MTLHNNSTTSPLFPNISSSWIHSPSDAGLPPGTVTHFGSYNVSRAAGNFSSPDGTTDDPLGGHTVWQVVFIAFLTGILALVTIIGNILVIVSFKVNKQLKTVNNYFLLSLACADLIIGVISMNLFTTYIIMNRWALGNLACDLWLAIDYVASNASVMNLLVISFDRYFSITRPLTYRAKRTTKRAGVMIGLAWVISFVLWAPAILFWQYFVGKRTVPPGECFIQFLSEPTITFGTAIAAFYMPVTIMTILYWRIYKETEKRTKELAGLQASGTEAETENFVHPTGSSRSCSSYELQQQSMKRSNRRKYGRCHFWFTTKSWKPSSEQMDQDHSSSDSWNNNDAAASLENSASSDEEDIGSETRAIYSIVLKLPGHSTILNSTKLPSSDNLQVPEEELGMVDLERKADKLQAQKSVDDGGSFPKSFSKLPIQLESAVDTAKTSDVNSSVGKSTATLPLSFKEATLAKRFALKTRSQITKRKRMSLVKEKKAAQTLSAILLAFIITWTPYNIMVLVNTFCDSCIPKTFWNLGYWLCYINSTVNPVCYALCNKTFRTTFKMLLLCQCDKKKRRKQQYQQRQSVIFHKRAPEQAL

IC50 (human M1 receptor; [3]) [nM] | Structure (SMILES) | IC50 (M3; [1]) [nM] | IC50 (M2; [2]) [nM] | IC50 (human M1 receptor) [nM] | IC50 (M2) [nM] | IC50 (M3) [nM]
< 100 | N#Cc1ccc(C2=CC3CCC2CN3C(=O)CCS(=O)(=O)c2cccc3ncsc23)nc1 (stereo not drawn) [Example 27, 6-{2-[3-(1,3-benzothiazole-7-sulfonyl)propanoyl]-2-azabicyclo[2.2.2]oct-5-en-5-yl}pyridine-3-carbonitrile] | 1000 to 10000 | 100 to 1000 |  |  | 
< 100 | N#Cc1ccc(C2CC3CCC2CN3C(=O)CCS(=O)(=O)c2cccc3ncsc23)nc1 (stereo not drawn) [Example 28, 6-[2-[3-(1,3-benzothiazole-7-sulfonyl)propanoyl]-2-azabicyclo[2.2.2]octan-5-yl]pyridine-3-carbonitrile] | 1000 to 10000 | 100 to 1000 |  |  | 
 | N#Cc1ccc(N2C3CCC2CN(C(=O)CCNCc2cccc4ncsc24)C3)nc1 [Example 29, 6-[3-(3-{[(1,3-benzothiazol-7-yl)methyl]amino}propanoyl)-3,8-diaza-bicyclo[3.2.1]octan-8-yl]pyridine-3-carbonitrile] | 1000 to 10000 | 1000 to 10000 | < 100 |  | 
 | N#Cc1ccc(N2C3CCC2CN(C(=O)C2CC(NCc4cccc5ncsc45)C2)C3)nc1 (stereo not drawn) [Example 30, 6-[3-(3-{[(1,3-benzothiazol-7-yl)methyl]amino}cyclobutanecarbonyl)-3,8-diazabicyclo[3.2.1]octan-8-yl]pyridine-3-carbonitrile] | > 10000 | 1000 to 10000 | 100 to 1000 |  | 
 | N#Cc1ccc(N2C3CCC2CN(C(=O)C2CC(Cc4cccc5ncsc45)C2)C3)nc1 (stereo not drawn) [Example 31, 6-(3-{3-[(1,3-benzothiazol-7-yl)methyl]cyclobutanecarbonyl}-3,8-diazabicyclo[3.2.1]octan-8-yl)pyridine-3-carbonitrile] | 1000 to 10000 | 1000 to 10000 | < 100 |  | 
100 to 1000 | O=C(CCS(=O)(=O)c1cccc2ncsc12)N1CCC2(c3ccc(C(F)(F)F)cn3)CC2C1 (stereo not drawn) [Example 32, 3-(1,3-benzothiazole-7-sulfonyl)-1-{6-[5-(trifluoromethyl)pyridin-2-yl]-3-azabicyclo[4.1.0]heptan-3-yl}propan-1-one] | 1000 to 10000 | 1000 to 10000 |  |  | 
 | N#Cc1ccc(N2C3CCC2CN(C(=O)CCNCc2cccc4ncnn24)C3)nc1 [Example 33, 6-(3-{3-[({[1,2,4]triazolo[1,5-a]pyridin-5-yl}methyl)amino]propanoyl}-3,8-diazabicyclo[3.2.1]octan-8-yl)pyridine-3-carbonitrile] | > 10000 | 1000 to 10000 | < 100 |  | 
 | N#Cc1ccc(N2C3CCC2CN(C(=O)CCNCc2c(F)ccc4nccn24)C3)nc1 [Example 34, 6-(3-{3-[({6-fluoroimidazo[1,2-a]pyridin-5-yl}methyl)amino]propanoyl}-3,8-diazabicyclo[3.2.1]octan-8-yl)pyridine-3-carbonitrile] | 1000 to 10000 | 1000 to 10000 | < 100 |  | 
 | N#Cc1ccc(N2C3CCC2CN(C(=O)CCN(Cc2cccc4ncsc24)C2CC2)C3)nc1 [Example 35, 6-[3-(3-{[(1,3-benzothiazol-7-yl)methyl](cyclopropyl)amino}propanoyl)-3,8-diazabicyclo[3.2.1]octan-8-yl]pyridine-3-carbonitrile] | 100 to 1000 | 100 to 1000 | < 100 |  | 
 | [2H]C([2H])(NCCC(=O)N1CC2CCC(C1)N2c1ccc(C#N)cn1)c1cccc2ncsc12 [Example 36, 6-[3-(3-[(benzo[d]thiazol-7-ylmethyl-d2)amino]propanoyl)-3,8-diazabicyclo[3.2.1]octan-8-yl]pyridine-3-carbonitrile] | 1000 to 10000 | 1000 to 10000 | < 100 |  | 
 | N#Cc1ccc(N2C3CCC2CN(C(=O)CCOCc2cccc4nccnc24)C3)nc1 [Example 37, 6-(3-{3-[(quinoxalin-5-yl)methoxy]propanoyl}-3,8-diazabicyclo[3.2.1]octan-8-yl)pyridine-3-carbonitrile] | > 10000 | 1000 to 10000 | < 100 |  | 
 | N#Cc1ccc(N2[C@@H]3CC[C@H]2CN(C(=O)COCc2cccc4nccnc24)C3)nc1 [Example 38, 6-((1R, 5S)-3-(2-(quinoxalin-5-ylmethoxy)acetyl)-3,8-diazabicyclo[3.2.1]octan-8-yl)nicotinonitrile] | 1000 to 10000 | 100 to 1000 | < 100 |  | 
 | N#Cc1ccc(N2C3CCC2CN(C(=O)CCOCc2cccc4ncnn24)C3)nc1 [Example 39, 6-{3-[3-({[1,2,4]triazolo[1,5-a]pyridin-5-yl}methoxy)propanoyl]-3,8-diazabicyclo[3.2.1]octan-8-yl}pyridine-3-carbonitrile] | 1000 to 10000 | 1000 to 10000 | < 100 |  | 
 | N#Cc1ccc(N2[C@@H]3CC[C@H]2CN(C(=O)CCOCc2cccc4ncccc24)C3)nc1 [Example 40, 6-((1R, 5S)-3-(3-(quinolin-5-ylmethoxy)propanoyl)-3,8-diazabicyclo[3.2.1]octan-8-yl)nicotinonitrile] | > 10000 |  | < 100 | 100 to 1000 | 
 | N#Cc1ccc(N2C3CCC2CN(C(=O)CCOCc2cccn4ncnc24)C3)nc1 [Example 42, 6-{3-[3-({[1,2,4]triazolo[1,5-a]pyridin-8-yl}methoxy)propanoyl]-3,8-diazabicyclo[3.2.1]octan-8-yl}pyridine-3-carbonitrile] | 1000 to 10000 | 1000 to 10000 | < 100 |  | 
 | N#Cc1ccc(N2C3CCC2CN(C(=O)COCCc2cccc4nccnc24)C3)nc1 [Example 43, 6-(3-{2-[2-(quinoxalin-5-yl)ethoxy]acetyl}-3,8-diazabicyclo[3.2.1]octan-8-yl)pyridine-3-carbonitrile] |  |  | 100 to 1000 | 1000 to 10000 | > 10000
 | N#Cc1ccc(N2C3CCC2CN(C(=O)CCCCc2cccc4ncsc24)C3)nc1 [Example 44, 6-{3-[5-(1,3-benzothiazol-7-yl)pentanoyl]-3,8-diazabicyclo[3.2.1]octan-8-yl}pyridine-3-carbonitrile] | 1000 to 10000 |  | < 100 | 100 to 1000 | 
 | N#Cc1ccc(N2[C@@H]3CC[C@H]2CN(C(=O)[C@H]2C[C@H](Nc4cccc5ncccc45)C2)C3)nc1 [Example 45, 6-(3-{3-[(quinolin-5-yl)amino]cyclobutanecarbonyl}-3,8-diazabicyclo[3.2.1]octan-8-yl)pyridine-3-carbonitrile] | > 10000 | 1000 to 10000 | 100 to 1000 |  | 
 | N#Cc1ccc(N2C3CCC2CN(C(=O)N2CC(=Cc4cccc5ncccc45)C2)C3)nc1 [Example 46, 6-(3-{3-[(quinolin-5-yl)methylidene]azetidine-1-carbonyl}-3,8-diazabicyclo-[3.2.1]octan-8-yl)pyridine-3-carbonitrile] | 1000 to 10000 | 1000 to 10000 | 100 to 1000 |  | 
 | O=C(CCOCc1cccc2ncccc12)N1C[C@H]2CC[C@@H](C1)N2c1ccc(F)cn1 [Example 48, 1-((1R,5S)-8-(5-fluoropyridin-2-yl)-3,8-diazabicyclo[3.2.1]octan-3-yl)-3-(quinolin-5-ylmethoxy)propan-1-one] | > 10000 | 1000 to 10000 | 100 to 1000 |  | 

Structure (SMILES) | IC50 (human M1 receptor; [3]) [nM] | IC50 (M3; [1]) [nM] | IC50 (M2; [2]) [nM] | IC50 (human M1 receptor) [nM] | IC50 (M2) [nM] | IC50 (M3) [nM]
O=C(COCc1cccc2cnccc12)N1C[C@H]2CC[C@@H](C1)N2c1ccc(F)cn1 [Example 47, 1-((1R,5S)-8-(5-fluoropyridin-2-yl)-3,8-diazabicyclo[3.2.1]octan-3-yl)-2-(isoquinolin-5-ylmethoxy)ethan-1-one] | 1000 to 10000 | > 10000 | 1000 to 10000 |  |  | 

From patent US11512090B2, “Muscarinic acetylcholine M1 receptor antagonists” (PIPELINE THERAPEUTICS, INC., priority 2018, dated 2022)
